Measurements: patent publication US20250179059A1 (The Regents of the University of California, priority 2021, published 2025)
Where two headings read alike, the source gives them in different places.

How the values were obtained:
[1] = tested on: human SKM-1 acute myeloid leukemia cells; experiment: SKM-1 antiproliferation cell-based assay (ATPlite); details: Homo sapiens
Description: The cell-based assay indirectly measures cell density (and therefore proliferation and/or survival) by detecting total ATP concentration in a homogeneous format. Briefly, human SKM-1 acute myeloid leukemia cells (Leibniz Institute DSMZ #ACC 547) proliferating in log phase are collected by centrifugation, re-suspended in culture media (RPMI 1640/15% FBS/100 U/mL penicillin/100 μg/mL streptomycin) and diluted to 34722 cells/mL in media after counting. Then 180 μL cells are plated per well into a 96-well tissue-culture treated, clear bottom plate (Coming #3603). A 96-well compound plate (Corning #3357) is then generated by serial dilution of compounds into DMSO over nine concentrations and adding separate negative (DMSO) and positive control (reference compound) wells. Each compound concentration is tested in triplicate. First, 1 μL from each well of the compound plate is added to 99 μL culture media in an intermediate plate and mixed by pipetting. Then 20 μL of the diluted compounds in media are added to the assay plate containing the cells. The assay plate is maintained for 4 days in a standard cell culture incubator. At the end of the incubation period, 100 μL ATPlite Istep (PerkinElmer) is added to the assay plate wells, and the resulting luminescence is detected using an Infinite M1000 or a Spark multimode plate reader (Tecan). Data analysis is performed in Prism (GraphPad Software). For curve fitting, a non-linear regression, variable slope equation is used to calculate cellular IC50s.

[2] = target: T1, human BRD4 bromodomain II (Homo sapiens, UniProt O60885); experiment: Bromodomain binding assay (AlphaScreen), BRD4 BDII
T1 construct: human BRD4 bromodomain II [based on Genbank NM_058243, residues 349-460]; host or cells: E. coli
Method in brief: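 E. coli-expressed N-terminal His6-tagged human BRD4 BDII (residues 349-460) or BDI (residues 44-170) was preincubated 30 min at room temperature with compound (10-point, 3-fold) in pH 7.5 HEPES buffer, 1% DMSO. Displacement of biotinylated tetra-acetylated H4 1-21 peptide was read by AlphaScreen, and IC50 came from curve fitting.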

[3] = SKM-1, 96 h, SKM-1 antiproliferation assay, 4 days, Table C2
[4] = AlphaScreen assay, Table C2, read-out: BRD4 BDII IC50
[5] = SKM-1, SKM-1 antiproliferation assay
[6] = BRD4 BDII AlphaScreen assay, read-out: BRD4 BD2 IC50

Row | Structure (SMILES) | GI50 [1, 3] [nM] | IC50 [2, 4] [nM] | GI50 [1, 5] [nM] | IC50 [2, 6] [nM]
1 | Cn1ccn(-c2ccc(-c3cc(F)cc(-c4cncc(N5CCC(C)(N)C5)c4)c3O)cc2Cl)c1=O (centres unmarked) [Example 745, 1-(3′-(5-(3-amino-3-methylpyrrolidin-1-yl)pyridin-3-yl)-3-chloro-5′-fluoro-2′-hydroxy-[1,1′-biphenyl]-4-yl)-3-methyl-1H-imidazol-2(3H)-one] | 0.3 to 30 | 0.01 to 1 | – | –
2 | [2H]C([2H])([2H])n1ccn(-c2ccc(-c3cc(F)cc(-c4ccnc(N5CCNC[C@@H]5C)c4)c3O)cc2Cl)c1=O [Example 482, (S)-1-(3-chloro-5′-fluoro-2′-hydroxy-3′-(2-(2-methylpiperazin-1-yl)pyridin-4-yl)-[1,1′-biphenyl]-4-yl)-3-deuteromethyl-1H-imidazol-2(3H)-one] | 0.3 to 30 | 0.01 to 1 | – | –
3 | Cn1ccn(-c2ccc(-c3cc(F)cc(-c4ccnc(N5CC6(CNC6)C5)c4)c3O)cc2Cl)c1=O [Example 455, 1-(3′-(2-(2,6-diazaspiro[3.3]heptan-2-yl)pyridin-4-yl)-3-chloro-5′-fluoro-2′-hydroxy-[1,1′-biphenyl]-4-yl)-3-methyl-1H-imidazol-2(3H)-one] | 30 to 300 | 1 to 10 | – | –
4 | Cc1cc(-c2ccc(-n3ccn(C)c3=O)c(Cl)c2)c(O)c(-c2cc(N3CCNCC3)c3cc[nH]c3c2)c1 [Example 557, 1-(3-chloro-2′-hydroxy-5′-methyl-3′-(4-(piperazin-1-yl)-1H-indol-6-yl)-[1,1′-biphenyl]-4-yl)-3-methyl-1H-imidazol-2(3H)-one] | 0.3 to 30 | 1 to 10 | – | –
5 | CN1CCN(c2ccc(-c3cccc(-c4cc(-c5ccccc5)nc(N5CCNCC5)c4)c3O)cc2Cl)C1=O [Example 344, 1-(3-chloro-2′-hydroxy-3′-(2-phenyl-6-(piperazin-1-yl)pyridin-4-yl)-[1,1′-biphenyl]-4-yl)-3-methylimidazolidin-2-one] | 30 to 300 | 10 to 100 | – | –
6 | CC(=O)Nc1ccc(-c2cc(C)cc(-c3ccnc(N4CCNCC4)c3)c2O)cc1F [Example 275, N-(3-fluoro-2′-hydroxy-5′-methyl-3′-(2-(piperazin-1-yl)pyridin-4-yl)-[1,1′-biphenyl]-4-yl)acetamide] | 30 to 300 | 1 to 10 | – | –
7 | O=C1NCCN1c1ccc(-c2cccc(-c3ccnc(N4CCNCC4)c3)c2O)cc1F [Example 231, 1-(3-fluoro-2′-hydroxy-3′-(2-(piperazin-1-yl)pyridin-4-yl)-[1,1′-biphenyl]-4-yl)imidazolidin-2-one] | 300 to 3000 | 1 to 10 | – | –
8 | Cc1cc(-c2cc(C)nc(N3CC[C@H](N)C3)c2)c(O)c(-c2ccc(-n3ccn(C)c3=O)c(Cl)c2)c1 [Example 518, (S)-1-(3′-(2-(3-aminopyrrolidin-1-yl)-6-methylpyridin-4-yl)-3-chloro-2′-hydroxy-5′-methyl-[1,1′-biphenyl]-4-yl)-3-methyl-1H-imidazol-2(3H)-one] | 0.3 to 30 | 0.01 to 1 | – | –
9 | Cn1ccn(-c2ccc(-c3cc(F)cc(-c4cnc(OC(F)F)c(N5CCN(C(C)(C)C)CC5)c4)c3O)cc2Cl)c1=O [Example 823, 1-(3′-(5-(4-(tert-butyl)piperazin-1-yl)-6-(difluoromethoxy)pyridin-3-yl)-3-chloro-5′-fluoro-2′-hydroxy-[1,1′-biphenyl]-4-yl)-3-methyl-1H-imidazol-2(3H)-one] | 0.3 to 30 | 1 to 10 | – | –
10 | Cn1ccn(-c2ccc(-c3cc(F)cc(-c4ccnc(N5CC6CC6(N)C5)c4)c3O)cc2Cl)c1=O (centres unmarked) [Example 721, 1-(3′-(2-(1-amino-3-azabicyclo[3.1.0]hexan-3-yl)pyridin-4-yl)-3-chloro-5′-fluoro-2′-hydroxy-[1,1′-biphenyl]-4-yl)-3-methyl-1H-imidazol-2(3H)-one] | 30 to 300 | 0.01 to 1 | – | –
11 | CC(C)N1CCC12CCN(c1cccc(-c3cc(F)cc(-c4ccc(-n5ccn(C)c5=O)c(Cl)c4)c3O)c1)C2 (centres unmarked) [Example 892] | – | – | 0.3 to 30 | 1 to 10
12 | Cn1ccn(-c2ccc(-c3cc(F)cc(-c4ccnc(N5CC6(CCNC6)CC5=O)c4)c3O)cc2Cl)c1=O (centres unmarked) [Example 705, 2-(4-(3′-chloro-5-fluoro-2-hydroxy-4′-(3-methyl-2-oxo-2,3-dihydro-1H-imidazol-1-yl)-[1,1′-biphenyl]-3-yl)pyridin-2-yl)-2,7-diazaspiro[4.4]nonan-3-one] | 30 to 300 | 0.01 to 1 | – | –
13 | Cn1ccn(-c2ccc(-c3cc(F)cc(-c4ccnc(N5CCC(C)(N)CC5)c4)c3O)cc2Cl)c1=O [Example 778] | 0.3 to 30 | 1 to 10 | – | –
14 | O=C1CCCN1c1ccc(-c2cccc(-c3ccnc(N4CC5(CNC5)C4)c3)c2O)cc1Cl [Example 271, 1-(3′-(2-(2,6-diazaspiro[3.3]heptan-2-yl)pyridin-4-yl)-3-chloro-2′-hydroxy-[1,1′-biphenyl]-4-yl)pyrrolidin-2-one] | 300 to 3000 | 10 to 100 | – | –
15 | CN1CCN(c2ccc(-c3cccc(-c4cncc(N5CCNCC5)c4)c3O)cc2F)C1=O [Example 292, 1-(3-fluoro-2′-hydroxy-3′-(5-(piperazin-1-yl)pyridin-3-yl)-[1,1′-biphenyl]-4-yl)-3-methylimidazolidin-2-one] | 30 to 300 | 1 to 10 | – | –
16 | Cn1ccn(-c2ccc(-c3cc(F)cc(-c4ccnc(N5CCC[C@@H](O)C5)c4)c3O)cc2Cl)c1=O [Example 622, (R)-1-(3-chloro-5′-fluoro-2′-hydroxy-3′-(2-(3-hydroxypiperidin-1-yl)pyridin-4-yl)-[1,1′-biphenyl]-4-yl)-3-methyl-1H-imidazol-2(3H)-one] | 30 to 300 | 1 to 10 | – | –
17 | CN1CCN(c2ccc(-c3cccc(-c4ccc(CN)c(N5CCNCC5)c4)c3O)cc2Cl)C1=O [Example 319, 1-(4″-(aminomethyl)-3-chloro-2′-hydroxy-3″-(piperazin-1-yl)-[1,1′:3′,1″-terphenyl]-4-yl)-3-methylimidazolidin-2-one] | 300 to 3000 | 1 to 10 | – | –
18 | Cc1cc(-c2cc(-c3ccn[nH]3)cc(N3CCNCC3)c2)c(O)c(-c2ccc(-n3ccn(C)c3=O)c(Cl)c2)c1 [Example 569] | 30 to 300 | 1 to 10 | – | –
19 | CNc1ncc(-c2cc(F)cc(-c3ccc(-n4ccn(C)c4=O)c(Cl)c3)c2O)cc1N1CCC2(CCCN2C(C)C)C1 (centres unmarked) [Example 970, 1-(3-chloro-5′-fluoro-2′-hydroxy-3′-(5-(1-isopropyl-1,7-diazaspiro[4.4]nonan-7-yl)-6-(methylamino)pyridin-3-yl)-[1,1′-biphenyl]-4-yl)-3-methyl-1H-imidazol-2(3H)-one] | – | – | 0.3 to 30 | 1 to 10
20 | O=C1CCCN1c1ccc(-c2cccc(-c3cncc(N4CCNCC4)c3)c2O)cc1F [Example 249, 1-(3-fluoro-2′-hydroxy-3′-(5-(piperazin-1-yl)pyridin-3-yl)-[1,1′-biphenyl]-4-yl)pyrrolidin-2-one] | 30 to 300 | 1 to 10 | – | –
21 | Cc1cc(-c2cc(-c3cn[nH]c3)cc(N3CCNCC3)c2)c(O)c(-c2ccc(-n3ccn(C)c3=O)c(Cl)c2)c1 [Example 570] | 0.3 to 30 | 1 to 10 | – | –
22 | Cn1ccn(-c2ccc(-c3cc(F)cc(-c4ccnc(N5CCC(C)(NC(=O)OC(C)(C)C)C5)c4)c3O)cc2Cl)c1=O (centres unmarked) [Example 776, tert-butyl (1-(4-(3′-chloro-5-fluoro-2-hydroxy-4′-(3-methyl-2-oxo-2,3-dihydro-1H-imidazol-1-yl)-[1,1′-biphenyl]-3-yl)pyridin-2-yl)-3-methylpyrrolidin-3-yl)carbamate] | 30 to 300 | 10 to 100 | – | –
23 | COCCC1CN(c2cc(-c3cc(F)cc(-c4ccc(-n5ccn(C)c5=O)c(Cl)c4)c3O)ccn2)CCN1 (centres unmarked) [Example 676, 1-(3-chloro-5′-fluoro-2′-hydroxy-3′-(2-(3-(2-methoxyethyl)piperazin-1-yl)pyridin-4-yl)-[1,1′-biphenyl]-4-yl)-3-methyl-1H-imidazol-2(3H)-one] | 0.3 to 30 | 0.01 to 1 | – | –
24 | Cc1cc(-c2cc(F)cc(-c3ccc(-n4ccn(C)c4=O)c(Cl)c3)c2O)cc(N2CCN(C(C)C)CC2)n1 [Example 703, 1-(3-chloro-5′-fluoro-2′-hydroxy-3′-(2-(4-isopropylpiperazin-1-yl)-6-methylpyridin-4-yl)-[1,1′-biphenyl]-4-yl)-3-methyl-1H-imidazol-2(3H)-one] | 0.3 to 30 | 1 to 10 | – | –
25 | Cc1cc(-c2ccc(-n3ccn(C)c3=O)c(Cl)c2)c(O)c(-c2ccnc(N3CC(F)(F)[C@@](C)(O)C3)c2)n1 [Example 1036, (S)-1-(2-chloro-4-(2′-(3,3-difluoro-4-hydroxy-4-methylpyrrolidin-1-yl)-3-hydroxy-6-methyl-[2,4′-bipyridin]-4-yl)phenyl)-3-methyl-1,3-dihydro-2H-imidazol-2-one] | – | – | 30 to 300 | 1 to 10
